For this experiment, the system named is colorectal cancer tumor cells with the SMAD4^R361H mutation. Kind of experiment: Cell viability (CellTiterGlo) of patient-derived colorectal tumor cells in Matrigel, SMAD4 R361H. Format: cell-based. As to conditions: Homo sapiens, 96 h, SMAD4^R361H loss-of-function mutation, 4-day treatment, FIG. 4, read-out: trametinib concentration at which tumor cell viability decreases below the IC50. The procedure:
The mean inhibitory concentration, further referred to as IC50, is the concentration of an inhibitor at which half-maximal inhibition is observed. […] For the experiment, the biological tumor samples were dissociated by incubation with TrypLE Express solution (ThermoFisher Scientific, Germany) and 1.5×10^3 cells per well were seeded in four replicates in Matrigel and overlaid with culture medium. After 3-day incubation at 37° C. in 5% CO2, medium was removed and fresh medium containing trametinib was added. Trametinib was tested in four 1:5 dilution concentrations. Following concentrations were tested: 0.1 μg/ml, 0.02 μg/ml, 0.004 μg/ml and 0.0008 μg/ml. Cells treated with DMSO were used as control while Matrigel only was used for background readout. Staurosporine was used as internal positive control. After 4-day treatment, cell viability was determined by CellTiterGlo® assay. Cell plating, treatment and testing were handled by Biomek FXP Liquid Handler (Beckman Coulter).
Background: ATP-based viability assays read luminescence as a measure of living cells.

Experimental findings from patent publication US20240076742A1, “METHODS FOR IMPROVED CANCER TREATMENT” (CELLPHENOMICS GMBH, priority 2020, published 2024) are described below.

≈ marks a conversion by molar mass, not a printed value.

For the compound `CC(=O)Nc1cccc(-n2c(=O)n(C3CC3)c(=O)c3c(Nc4ccc(I)cc4F)n(C)c(=O)c(C)c32)c1` [trametinib, N-(3-{3-Cyclopropyl-5-[(2-fluor-4-iodphenyl)amino]-6,8-dimethyl-2,4,7-trioxo-3,4,6,7-tetrahydropyrido[4,3-d]pyrimidin-1(2H)-yl}phenyl)acetamid], the IC50 amounted to 6 ng/mL (≈ 9.75 nM).
